From ChEMBL document CHEMBL3244068 (J Med Chem, 1978)

Tests used:
[1] = Stability of the compound in acetone assessed as hydrolysis at 66 degC after 30 mins; format: physicochemical; details: 0.5 h
L1210 [2] = assay: Antitumor activity against mouse L1210 cells assessed as dose required to produce T/C of 125% administered for 10 days; format: functional
L1210 [3] = assay: Antitumor activity against mouse L1210 cells assessed as dose required to produce T/C of 125% administered for 15 days; format: functional
[4] = Ratio of LD50 for rat allografted with rat Walker 256 cells to ED90 for rat Walker 256 cells allografted in rat
Rattus norvegicus = species: Rattus norvegicus; assay: Toxicity in rat allografted with rat Walker 256 cells; format: organism-based
W256 = assay: Antitumor activity against rat Walker 256 cells allografted in rat; format: functional
[5] = Drug metabolism assessed as log K of Holtzman rat liver esterase-mediated hydrolysis after 5 mins; format: ADME, tissue-based; details: isolated protein
P388 [6] = assay: Antitumor activity against mouse P388 cells allografted in mouse assessed as dose required to produce T/C of 180% administered for 9 days; format: functional
P388 [7] = assay: Antitumor activity against mouse P388 cells allografted in mouse assessed as dose required to produce T/C of 125% administered for 9 days; format: functional
L1210 [8] = assay: Antitumor activity against mouse L1210 cells assessed as dose required to produce T/C of 125% administered for 9 days; format: functional
L1210 [9] = assay: Antitumor activity against mouse L1210 cells assessed as dose required to produce T/C of 125% administered for 8 days; format: functional
P388 [10] = assay: Antitumor activity against mouse P388 cells allografted in mouse assessed as dose required to produce T/C of 180% administered for 10 days; format: functional
P388 [11] = assay: Antitumor activity against mouse P388 cells allografted in mouse assessed as dose required to produce T/C of 125% administered for 10 days; format: functional

Structure (SMILES) | Ratio [4] | log1/CLD50 (Rattus norvegicus) | log1/CED90 (W256) | also measured
ClCCN(CCCl)c1ccc(/C=C/c2ccccc2)cc1 | – | – | – | log K [1]: -3.95; log(%) [1]: 1.26
CS(=O)(=O)OCCN(CCOS(C)(=O)=O)c1ccc([N+](=O)[O-])cc1 | – | – | – | log(1/C) (L1210 [2]): 3.74
CC(=O)Nc1cc(N(CCOS(C)(=O)=O)CCOS(C)(=O)=O)ccc1N=O | – | – | – | log(1/C) (L1210 [3]): 6.05
CCOC(=O)c1ccc(N(CCOS(C)(=O)=O)CCOS(C)(=O)=O)cc1 | – | – | – | log(1/C) (L1210 [3]): 4.07
CS(=O)(=O)OCCN(CCOS(C)(=O)=O)c1ccccc1 | – | – | – | log(1/C) (L1210 [3]): 3.97
O=C(Oc1ccc(N(CCBr)CCBr)cc1)c1ccccc1 | 3.5 | 5.45 | 5.45 | –
Cc1ccccc1C(=O)Oc1ccc(N(CCBr)CCBr)cc1 | 3.5 | 4.96 | 4.96 | –
Cc1cccc(C)c1C(=O)Oc1ccc(N(CCBr)CCBr)cc1 | 3.5 | 3.58 | 3.81 | –
CCc1ccccc1C(=O)Oc1ccc(N(CCBr)CCBr)cc1 | 3.5 | 4.64 | 4.96 | –
CC(C)c1ccccc1C(=O)Oc1ccc(N(CCBr)CCBr)cc1 | 3.5 | 4.66 | 4.39 | –
Cc1cccc(C(=O)Oc2ccc(N(CCBr)CCBr)cc2)c1 | 3.5 | 5.16 | 5.18 | –
Cc1ccc(C(=O)Oc2ccc(N(CCBr)CCBr)cc2)cc1 | 3.5 | 5.32 | 4.94 | –
O=C(Oc1ccc(N(CCBr)CCBr)cc1)c1cccc(Cl)c1 | 3.5 | 5.11 | 4.96 | –
O=C(Oc1ccc(N(CCBr)CCBr)cc1)c1ccc(Cl)cc1 | 3.5 | 5.18 | 4.66 | –
COc1ccc(C(=O)Oc2ccc(N(CCBr)CCBr)cc2)cc1 | 3.5 | 5.21 | 5.12 | –
O=C(Oc1ccc(N(CCBr)CCBr)cc1)c1cccc(C(F)(F)F)c1 | 3.5 | 5.11 | 4.99 | –
O=C(Oc1ccc(N(CCBr)CCBr)cc1)c1cccc([N+](=O)[O-])c1 | 3.5 | 5.07 | 4.67 | –
O=C(Oc1ccc(N(CCBr)CCBr)cc1)c1ccc([N+](=O)[O-])cc1 | 3.5 | 5.37 | 4.86 | –
O=C(Oc1ccc(N(CCCl)CCCl)cc1)c1ccccc1 | 3.5 | 4.06 | 4.86 | –
Cc1ccccc1C(=O)Oc1ccc(N(CCCl)CCCl)cc1 | 3.5 | 3.71 | 4.55 | –
Cc1ccc(C(=O)Oc2ccc(N(CCCl)CCCl)cc2)cc1 | 3.5 | 4.2 | 4.78 | –

Structure (SMILES) | Ratio [4] | log1/CLD50 (Rattus norvegicus) | log1/CED90 (W256) | also measured
Cc1cccc(C)c1C(=O)Oc1ccc(N(CCCl)CCCl)cc1 | 3.5 | 3.1 | 3.31 | –
O=C(Oc1ccc(N(CCCl)CCCl)cc1)c1cccc(Br)c1 | 3.5 | 3.84 | 4.22 | –
O=C(Oc1ccc(N(CCCl)CCCl)cc1)c1ccc(Br)cc1 | 3.5 | 4.19 | 4.84 | –
O=C(Oc1ccc(N(CCCl)CCCl)cc1)c1cccc(Cl)c1 | 3.5 | 3.95 | 4.55 | –
O=C(Oc1ccc(N(CCCl)CCCl)cc1)c1cccc(F)c1 | 3.5 | 4.38 | 4.88 | –
O=C(Oc1ccc(N(CCCl)CCCl)cc1)c1ccc(F)cc1 | 3.5 | 4.21 | 4.9 | –
COc1ccc(C(=O)Oc2ccc(N(CCCl)CCCl)cc2)cc1 | 3.5 | 4.11 | 4.89 | –
O=C(Oc1ccc(N(CCCl)CCCl)cc1)c1cccc([N+](=O)[O-])c1 | 3.5 | 4.4 | 4.81 | –
COc1cccc(C(=O)Oc2ccc(N(CCBr)CCBr)cc2)c1 | 3.5 | 5.25 | – | –
CCN(CC)c1ccc(OC(=O)c2ccc([N+](=O)[O-])cc2)cc1 | – | – | – | log K [5]: 0.67
CCN(CC)c1ccc(OC(=O)c2cccc([N+](=O)[O-])c2)cc1 | – | – | – | log K [5]: 0.55
CCN(CC)c1ccc(OC(=O)c2ccc(C(F)(F)F)cc2)cc1 | – | – | – | log K [5]: 0.45
CCN(CC)c1ccc(OC(=O)c2cccc(C(F)(F)F)c2)cc1 | – | – | – | log K [5]: 0.34
CCN(CC)c1ccc(OC(=O)c2cccc(Cl)c2)cc1 | – | – | – | log K [5]: 0.32
CCN(CC)c1ccc(OC(=O)c2ccc(Cl)cc2)cc1 | – | – | – | log K [5]: 0.2
CCN(CC)c1ccc(OC(=O)c2ccc(C)cc2)cc1 | – | – | – | log K [5]: -0.41
CCN(CC)c1ccc(OC(=O)c2cccc(C)c2)cc1 | – | – | – | log K [5]: 0.32
CCN(CC)c1ccc(OC(=O)c2ccc(OC)cc2)cc1 | – | – | – | log K [5]: -0.49
CCN(CC)c1ccc(OC(=O)c2cccc(OC)c2)cc1 | – | – | – | log K [5]: 0.15
CCN(CC)c1ccc(OC(=O)c2ccccc2)cc1 | – | – | – | log K [5]: -0.26
CCOC(=O)CCOc1ccccc1N(CCCl)CCCl | – | – | – | log(1/C) (L1210 [3]): 4.67

Structure (SMILES) | Ratio [4] | log1/CLD50 (Rattus norvegicus) | log1/CED90 (W256) | also measured
O=C(O)c1ccccc1N(CCO)CCCl | – | – | – | log(1/C) (L1210 [3]): 4.94
CCC(=O)OCC(Br)CBr (stereo not drawn) | – | – | – | log(1/C) (L1210 [3]): 5.83
ClCCN(CCCl)c1ccc(/N=C/c2ccccc2)cc1 | – | – | – | log(1/C) (P388 [6]): 5; log(1/C) (P388 [7]): 5.33
CS(=O)(=O)OCCN(CCOS(C)(=O)=O)c1ccc([N+](=O)[O-])c(Cl)c1 | – | – | – | log(1/C) (L1210 [3]): 3.02
Cc1ccc(S(=O)(=O)OCCN(CCOS(=O)(=O)c2ccc(C)cc2)c2cccc(F)c2)cc1 | – | – | – | log(1/C) (L1210 [3]): 3.31
Cc1ccc(S(=O)(=O)OCCN(CCOS(=O)(=O)c2ccc(C)cc2)c2ccccc2)cc1 | – | – | – | log(1/C) (L1210 [3]): 3.8
CS(=O)(=O)OCCN(CCOS(C)(=O)=O)c1cccc([N+](=O)[O-])c1 | – | – | – | log(1/C) (L1210 [2]): 3.93
CS(=O)(=O)OCCN(CCOS(C)(=O)=O)c1cccc(C(F)(F)F)c1 | – | – | – | log(1/C) (L1210 [3]): 4.42
CCOC(=O)c1cccc(N(CCOS(C)(=O)=O)CCOS(C)(=O)=O)c1 | – | – | – | log(1/C) (L1210 [2]): 4.63
CS(=O)(=O)OCCN(CCOS(C)(=O)=O)c1cccc(Cl)c1 | – | – | – | log(1/C) (L1210 [2]): 4.85
CCOC(=O)c1cc(N(CCOS(C)(=O)=O)CCOS(C)(=O)=O)ccc1N | – | – | – | log(1/C) (L1210 [3]): 4.85
Cc1ccc(S(=O)(=O)OCCN(CCOS(=O)(=O)c2ccc(C)cc2)c2ccc(F)cc2)cc1 | – | – | – | log(1/C) (L1210 [8]): 4.2
CC(=O)Nc1cccc(N(CCOS(C)(=O)=O)CCOS(C)(=O)=O)c1 | – | – | – | log(1/C) (L1210 [8]): 5.67
CS(=O)(=O)OCCN(CCOS(C)(=O)=O)c1ccc(N=O)c(Cl)c1 | – | – | – | log(1/C) (L1210 [3]): 6.03
CS(=O)(=O)OCCN(CCOS(C)(=O)=O)c1ccc(N=O)cc1 | – | – | – | log(1/C) (L1210 [9]): 6.13
Cc1cc(N(CCOS(C)(=O)=O)CCOS(C)(=O)=O)ccc1N=O | – | – | – | log(1/C) (L1210 [2]): 6.4
CCOC(=O)CCCc1ccc(N(CCCl)CCCl)cc1 | – | – | – | log K [1]: -3.84; log(%) [1]: 1.36
O=C(O)CCCc1ccc(N(CCCl)CCCl)cc1 [CHLORAMBUCIL] | – | 4.03 | 5.12 | log K [1]: -3.65
ClCCN(CCCl)c1ccc2ccccc2c1 [CHLORNAPHAZINE] | – | – | – | log(%) [1]: 1.18
NC(Cc1ccc(N(CCCl)CCCl)cc1)C(=O)O (stereo not drawn) [SARCOLYSIN] | – | – | – | log(1/C) (P388 [10]): 5.18; log(1/C) (L1210 [3]): 4.94; log(1/C) (P388 [11]): 5.61
